Data set [1] deals with NMU-induced rat mammary tumors. The following applies: cited from earlier work.
Data set [2] has as its system human prostate cancer cells. The following applies: mouse xenograft model (Butler et al. 2000); cited from earlier work.
Data set [3] in a line: Follow-up blood chemistry and hematology of the SAHA-treated dog. It counts as in vivo, canine. From the text: Approximately one month post-splenectomy, the dog was examined and found to be in good condition. […] The platelet count was above the normal range 550, (reference range, 100-450).
(§1) A little over 7 months post-splenectomy, the dog was examined for possible signs of metastasis by chest X-Ray, abdominal ultrasound, echogram, urinalysis and CBC.

The nature of data set [4]: Analyzed urine output: removal, half-life and metabolism of SAHA. Type of data set: in vivo. From the text: (§2) Therefore, it may be possible with further studies to better understand the effect of SAHA on the vascularization of tumors, not only in canines, but perhaps in humans as well.
A further data set is described as follows: General toxicity of SAHA. From the text: The daily dosage of the compound of the present invention may vary according to a variety of factors such as underlying disease states, the individual's type, species, and medical condition, weight, sex, age, the severity of the condition to be treated; the route of administration; and the particular compound thereof employed. […] A physician or veterinarian of ordinary skill can readily determine and prescribe the effective amount of the drug required to prevent, counter or arrest the progress of the condition. Optimal precision in achieving concentrations of drug within the range that yields efficacy without toxicity requires a regimen based on the kinetics of the drug's availability to target sites. This involves consideration of the absorption, distribution, metabolism, and excretion of a drug, which are readily quantified.

A short description of data set [5]: Stability at room temperature and solubility of the active compound. Type of data set: physicochemical.
From the text: Suitable preparations of such compositions include emulsions or solid forms suitable for emulsion. As used herein “solid forms” include powders and finely divided particles. Due to the insoluble nature of the active compound, e.g., SAHA, the preferred preparation is in the form of a powder.
as §2

The test system of a further data set is canine hemangiosarcoma. It counts as in vivo. As for the experimental part: The present invention is based in part on a case study of a dog having hemangiosarcoma. In the case study, SAHA was administered to the dog at a dose of 100 mg per day (about 3.3 mg/kg/day) post-splenectomy, mixed as a dry powder in dog food. The dog remains in good health more than 400 days post-splenectomy.
A 75 pound (33.75 kg), 12 year old female Rhodesian Ridgeback-Pit Bull mix was diagnosed with hemangiosarcoma. Symptoms included unexplained weakness, pale color to the mucous membranes of the mouth, lack of appetite and excessive consumption of water. The dog was brought to an emergency veterinary center, where X-ray and sonogram examination indicated a multi-lobulated mass on the spleen. An emergency splenectomy was performed, during which approximately 1 liter of blood was aspirated from the body cavity. There was no gross evidence of metastases in the liver or heart and a liver biopsy was taken. […] Nuclei were mildly pleomorphic, oval and had prominent nucleoli. Mitoses were occasionally present. Extramedullary hematopoiesis was present throughout and large areas of hemorrhage and necrosis was typical. The tumor was multifocal throughout the spleen. Pathology results were reported as hemangiosarcoma, grade 1, spleen, with a normal liver.
Starting approximately 2 weeks after splenectomy, when signs of weakness had re-appeared, SAHA was administered in the diet at 100 mg/day, 7 days/week. The dose was based on a rough extrapolation from rat studies. The diet consisted of a cup of standard pelleted dog food (Solid Gold, Hund-n-Flocken), a teaspoonful of brewers yeast (Foster and Smith, Rhinelander, Wis.), 1-2 ml of an essential fatty acid mixture containing n-6 and n-3 PUFA (Foster and Smith), and 2 tablespoonfuls of wet dog food (Pedigree®, Kal Kan Foods, Inc., CA), in which the SAHA was administered.
Within 24 hrs, there was an immediate, observable decrease in weakness and lethargy. […] For three months from diagnosis, the dog went through periods of high alertness and activity punctuated by brief periods of mild lethargy.
as §1

For the next data set, the system named is hemangiosarcoma. The following applies: canines, surgery and chemotherapy with doxorubicin; cited from earlier work.
Setting [6] is: added to the diet, chemopreventive (Cohen et al., 1999).

Structures are written as SMILES. “And” between values parts separate entries of the source, which are not always exact repeats. Identical values can stand only once. Like-named read-outs stand apart in the source and are kept apart here.

As to `O=C(CCCCCCC(=O)Nc1ccccc1)NO` [SAHA, suberoylanilide hydroxamic acid], the “effect on time of appearance, incidence, multiplicity and total number of NMU-induced rat mammary tumors” value in data set [1] (setting [6]) is recorded as “significantly inhibit”. In addition, the side effects entry in data set [1] (setting [6]) is on record as “no deleterious side effects”; in data set [1] (administered in the diet, established tumors (Cohen et al., 2002)), “no toxic side effects”. Also, in data set [1] (administered in the diet, chemotherapeutic (Cohen et al., 2002)), the “effect on established rat mammary tumors” value is recorded as “decrease the size, slow the growth rate and, in some cases, induce the complete regression”. In addition, the tumor growth result in data set [2] is listed as “inhibited tumor growth”. The molecule also gave a bands neutrophils in data set [3] (a little over 7 months post-splenectomy, range 0-3) of 6. Further, the RBC in data set [3] (a little over 7 months post-splenectomy, range 5.5-8.5) is 4.98 10^6/µL; in data set [3] (approximately one month post-splenectomy, range 5-8), 4.96 10^6/µL. Besides, the segmented neutrophil in data set [3] (a little over 7 months post-splenectomy, range 32-36) came to 36.5. The Hematocrit in data set [3] (a little over 7 months post-splenectomy, range 37-55) turned out to be 35.3%. This molecule also had an alkaline phosphatase in data set [3] (a little over 7 months post-splenectomy, reference range 10-150) of 3 U/L. For the same molecule, the hemoglobin in data set [3] (approximately one month post-splenectomy, range 14-21) was 13.2 g/dL. For the same molecule, in data set [3] (approximately one month post-splenectomy, reference range 50-550), the LDH came to 49 U/L. The platelet count in data set [3] (approximately one month post-splenectomy, reference range 100-450) is 550 10^3/µL. The half-life entry in data set [4] (from analyzed urine output) was “approximately three to four”. Moreover, the “removal from the body” value in data set [4] (from analyzed urine output) is on record as “rapidly removed from the body”. The “metabolism by the animal” value in data set [4] (in vivo) is “not readily metabolized”. The toxicity result in “General toxicity of SAHA” is given as “almost no measurable toxicity other than possible fatigue at high doses”. The solubility result in data set [5] is “insoluble”. For the same molecule, the “stability at room temperature” value in data set [5] (room temperature) is “stable at room temperature”. In the data set on canine hemangiosarcoma (SAHA increased to 110 mg/day), the “signs of decreased energy after dose increase” value is given as “no signs of decreased energy”. The “signs of metastasis by chest X-Ray, abdominal ultrasound, echogram, urinalysis and CBC” value in the data set with canine hemangiosarcoma (a little over 7 months post-splenectomy) is “no evidence of dissemination”. The “time to observable decrease in weakness and lethargy” value in the data set on canine hemangiosarcoma (after start of SAHA 100 mg/day in the diet, about 2 weeks after splenectomy) was at most 24 h. For the same molecule, the “time the dog remains in good health post-splenectomy” value with canine hemangiosarcoma (one dog with hemangiosarcoma, SAHA 100 mg per day (about 3.3 mg/kg/day), later 110 mg/day, in dog food) is “more than 400 days and 400 days”. Moreover, the “duration of suppression of metastatic dissemination of neoplastic endothelial cells post-splenectomy” value in the data set with canine hemangiosarcoma (one dog, SAHA daily in diet) is recorded as 210 days.
For the molecule `COc1cccc2c1C(=O)c1c(O)c3c(c(O)c1C2=O)C[C@@](O)(C(=O)CO)C[C@@H]3O[C@H]1C[C@H](N)[C@H](O)[C@H](C)O1` [doxorubicin], the prognosis once diagnosed entry with hemangiosarcoma is “less than six”.
